One data set concerns AMPK. Nature of the data set: Western blot of phosphorylated AMPK in HepG2 cells. In kind it is cell-based, Human. The following applies: twenty-four hours of treatment, dose dependent. As to the method: (§1) Human hepatocellular carcinoma cells (HepG2), obtained from American Type Culture Collection (Manassas, Va., USA), were cultured in low-glucose (LG) Dulbecco's modified Eagle's medium (DMEM) ([…], Invitrogen, Carlsbad, Calif., USA) or high-glucose (HG) DMEM ([…]) supplemented with 10% fetal bovine serum (FBS) and […] penicillin/streptomycin in an atmosphere of 5% CO2 at 37° C. These cells were then treated with tested compounds at various concentrations for 24 h. After treatments, cells were lysed in a buffer containing 20 mM Tris-HCl (pH 7.5), 0.9% NaCl, 0.2% Triton X-100, and 1% of the protease inhibitor cocktail (Sigma-Aldrich, Milan, Italy) and then stored at −80° C. for further western blot analysis. All the analyses were conducted on cells between the third and the sixth passage.
(§2) Proteins (20-30 μg) were separated on CriterionTGX™ gel (4-20%) and transferred on Immuno-PVDF membrane (Biorad, Milan, Italy) for 1 h. Blots were incubated with the primary antibody at 4° C. overnight. All the polyclonal antibodies for the protein of interest were purchased from Santa Cruz Biotechnology, Inc., Dallas, TX, USA. Then, blots were washed 3 times for 10 minutes with 1×TBS, 0.1% Tween® 20 and incubated for 1 h with secondary antibody (peroxidase-coupled anti rabbit in 1×TBS, 0.1% Tween®20). […] Band densitometric analysis was performed using Image Lab Software (Biorad, Milan, Italy).
(§3) The liver is a major organ responsible for most functions of cellular metabolism and a mediator between dietary and endogenous sources of energy for extrahepatic tissues. In this context, AMPK constitutes an intrahepatic energy sensor regulating physiological energy dynamics by limiting anabolism and stimulating catabolism, thus increasing ATP availability. Once activated, AMPK phosphorylates its downstream substrates to reduce ATP-consuming anabolic pathways, including cholesterol, fatty acid, and triacylglycerol synthesis, and increases ATP-generating catabolic pathways, including fatty acid oxidation and lipolysis. […]
(A western blot detects proteins with antibodies after separation by electrophoresis.)

For another data set, the system named is ACC. Nature of the data set: Western blot of phosphorylated ACC in HepG2 cells. In kind it is cell-based, Human. The following applies: twenty-four hours of treatment. As to the method:
as §1, §2, §3

Data set [1] deals with HepG2 cells. In words: Cell viability MTT assay. In kind it is cell-based. Conditions: 1-10 μM, 24 h. As for the experimental part: HepG2 cells were seeded in a 96-well plate (Corning, USA) at a density of 1.0×10^4 cells/well with DMEM (200 μl/well), and then incubated for 24 h according to routine procedure. After being treated with test compounds (1-10 μM) and incubated for 24 h (8 wells for each sample), 20 μL/well MTT (5 g/L) was added to each well. The medium was then removed after 4 h incubation and 100 μL/well sodium dodecyl sulfate (SDS)-HCl solution was added to dissolve the reduced formazan product after incubation for 16 h at 37° C. Finally, the plate was read at 570 nm, using a micro-plate reader (Bio-Rad 680, USA).
(In general: Formazan colour is commonly taken as a measure of viable cells.)

In data set [2] the test system is HepG2 cells. In words: Total lipid accumulation by Oil Red O staining. The following applies: 25 μM. The data set is classed as cell-based, Human. As for the experimental part:
Total lipid accumulation was evaluated according to the method previously described by Liu et al.. […] Cloroquine (25 μM) and Isoproterenol (10 μM) were used as positive controls. Subsequently, after collecting the growth media to be used to perform glycerol level measurements (as detailed below), cells were rinsed twice with PBS and fixed in 4% paraformaldehyde in PBS for 30 min. Then, cells were stained with Oil Red O working solution for 1 h at room temperature and subsequently rinsed with water.
The Oil Red O stock solution was prepared by dissolving 0.35 g of Oil Red O (Sigma Aldrich, Milan, Italy) in 100 mL of isopropanol by gentle heating and then cooled and filtered through a 0.45 μm filter. The working solution was prepared by diluting three parts of the stock solution in two parts of MilliQ water (stock solution:MilliQ water; 3:2 v/v). The cell images were captured with a Leitz Fluovert FU (Leica Microsystems, Wetzlar, Germany) microscope. Lipids appeared red. For quantitative analysis of cellular lipids, 1 mL isopropanol was added to each well of the stained culture plate. The extracted dye was immediately removed by gentle pipetting and its absorbance was measured at 510 nm.

The next data set relates to pancreatic acinar cells. In words: Pancreatic acinar cell proliferation (BrdU labeling index). The data set is classed as in vivo, rats. Conditions: one week; T3 4 mg/kg diet; GC1 50 μg/kg gavage once daily; TG68 and IS25 50 μg/kg in drinking water. As for the experimental part:
FIG. 9. […] BrdU (1 mg/ml) in drinking water was given all throughout the experimental time. […] LI was expressed as number of BrdU-positive acinar cell nuclei/100 nuclei. At least 2000 acinar cells per pancreas were scored. Results are expressed as means±SE of 3 to 5 rats per group. (one way ANOVA). ***Statistically significant from control; P<0.001.
BrdU (1 mg/ml) in drinking water was given all throughout the experimental time. […] LI was expressed as number of BrdU-positive acinar cell nuclei/100 nuclei. At least 2000 acinar cells per pancreas were scored.

The conditions of data set [3]: known property of the reference; cited from earlier work.

Consider `N[C@@H](Cc1cc(I)c(Oc2ccc(O)c(I)c2)c(I)c1)C(=O)O` [Compound T3, 3,5,3′-triiodothyronine, reference compound], for which, in the data set on AMPK, the “expression of p-AMPK” value is listed as “significantly (p<0.05) increased”. In addition, the “ACC phosphorylation (p-ACC)” value with ACC was “significant ACC phosphorylation”. Further, in the data set with HepG2 cells [1], the “cell viability (cell death with respect to control)” value is recorded as “did not significantly (p<0.05) cause cell death”.
Turning to `CCN(CC)CCCC(C)Nc1ccnc2cc(Cl)ccc12` (stereo not drawn) [Cloroquine], the “red lipid droplets (Oil Red O), steatosis-inducing positive control” value in the data set with HepG2 cells [2] is “high amount of red lipid droplets”.
As for `Cc1cc(OCC(=O)O)cc(C)c1Cc1ccc(O)c(C(C)C)c1` [GC-1, Sobetirome, reference compound], the “pancreatic acinar cell proliferation (BrdU-positive acinar cells)” value with pancreatic acinar cells is recorded as “Several BrdU-positive acinar cells were observed”. Besides, the solubility in water result in data set [3] is reported as “insoluble compound in water”.
